In article PMC4245125, “Pharmacological and Behavioral Characterization of D-473, an Orally Active Triple Reuptake Inhibitor Targeting Dopamine, Serotonin and Norepinephrine Transporters” (PLoS ONE, 2014):
“And” between values parts separate entries of the source, which are not always exact repeats. Equal entries are not always repeated.

How the values were obtained:
D4 = target: T1, D4 (Homo sapiens, UniProt P21917); assay: NIMH PDSP receptor binding, D4; details: [3H]N-methylspiperone, read-out: % Inhibition of Binding at 10 µM D-473
T1 construct: purchased NIMH PDSP
T1 sequence (P21917 whole entry): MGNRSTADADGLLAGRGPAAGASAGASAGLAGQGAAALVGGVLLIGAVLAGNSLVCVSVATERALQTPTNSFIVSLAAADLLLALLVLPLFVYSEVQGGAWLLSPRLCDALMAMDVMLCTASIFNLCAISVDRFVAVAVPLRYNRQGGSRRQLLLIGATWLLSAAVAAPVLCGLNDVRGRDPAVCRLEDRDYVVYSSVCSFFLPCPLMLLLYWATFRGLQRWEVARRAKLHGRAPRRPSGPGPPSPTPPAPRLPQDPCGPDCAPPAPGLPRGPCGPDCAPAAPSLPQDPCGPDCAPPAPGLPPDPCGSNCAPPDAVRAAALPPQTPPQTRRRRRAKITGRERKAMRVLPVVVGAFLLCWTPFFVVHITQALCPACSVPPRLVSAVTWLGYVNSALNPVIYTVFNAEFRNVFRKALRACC

5HT1e = target: T2, 5HT1e (Homo sapiens, UniProt P28566); assay: NIMH PDSP receptor binding, 5HT1e; details: [3H]5-HT, read-out: % Inhibition of Binding at 10 µM D-473
T2 construct: purchased NIMH PDSP
T2 sequence (P28566 whole entry): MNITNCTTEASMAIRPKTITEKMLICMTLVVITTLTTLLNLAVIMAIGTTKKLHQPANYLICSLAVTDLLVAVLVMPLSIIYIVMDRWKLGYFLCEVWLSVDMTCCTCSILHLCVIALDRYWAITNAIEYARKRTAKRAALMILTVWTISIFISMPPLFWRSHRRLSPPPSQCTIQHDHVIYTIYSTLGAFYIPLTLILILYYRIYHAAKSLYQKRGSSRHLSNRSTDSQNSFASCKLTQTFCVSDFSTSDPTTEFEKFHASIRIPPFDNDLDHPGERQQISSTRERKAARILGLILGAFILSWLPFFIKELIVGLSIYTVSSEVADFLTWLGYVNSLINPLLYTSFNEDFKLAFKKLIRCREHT

5HT2c = target: T3, 5HT2c (Homo sapiens, UniProt P28335); assay: NIMH PDSP receptor binding, 5HT2c; details: [3H]Mesulergine, read-out: % Inhibition of Binding at 10 µM D-473
T3 construct: purchased NIMH PDSP
T3 sequence (P28335 33-458): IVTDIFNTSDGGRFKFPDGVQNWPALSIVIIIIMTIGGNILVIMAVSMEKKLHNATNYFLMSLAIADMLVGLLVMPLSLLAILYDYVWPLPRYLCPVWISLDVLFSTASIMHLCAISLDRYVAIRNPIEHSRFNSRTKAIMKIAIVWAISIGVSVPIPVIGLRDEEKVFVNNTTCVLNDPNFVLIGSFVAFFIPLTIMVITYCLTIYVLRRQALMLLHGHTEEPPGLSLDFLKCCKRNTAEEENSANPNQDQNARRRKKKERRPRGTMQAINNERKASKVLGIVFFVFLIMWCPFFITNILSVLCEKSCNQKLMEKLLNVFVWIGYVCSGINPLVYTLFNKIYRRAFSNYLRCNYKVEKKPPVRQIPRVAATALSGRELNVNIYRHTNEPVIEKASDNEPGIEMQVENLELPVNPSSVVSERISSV

5HT7 = target: T4, 5HT7 (Homo sapiens, UniProt P34969); assay: NIMH PDSP receptor binding, 5HT7; details: [3H]LSD, read-out: % Inhibition of Binding at 10 µM D-473
T4 construct: purchased NIMH PDSP
T4 sequence (P34969 whole entry): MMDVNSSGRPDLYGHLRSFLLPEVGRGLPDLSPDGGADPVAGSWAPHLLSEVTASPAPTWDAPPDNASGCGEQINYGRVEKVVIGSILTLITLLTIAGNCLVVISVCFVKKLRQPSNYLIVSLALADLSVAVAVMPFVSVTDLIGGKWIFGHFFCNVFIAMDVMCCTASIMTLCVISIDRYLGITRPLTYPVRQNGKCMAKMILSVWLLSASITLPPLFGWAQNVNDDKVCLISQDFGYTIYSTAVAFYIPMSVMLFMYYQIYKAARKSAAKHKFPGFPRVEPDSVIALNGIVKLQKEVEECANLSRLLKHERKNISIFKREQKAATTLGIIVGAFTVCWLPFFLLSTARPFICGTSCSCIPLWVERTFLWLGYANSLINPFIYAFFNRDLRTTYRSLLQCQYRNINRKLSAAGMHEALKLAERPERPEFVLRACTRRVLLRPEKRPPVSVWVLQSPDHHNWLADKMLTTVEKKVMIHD

Alpha1D = target: T5, Alpha1D (Homo sapiens, UniProt P25100); assay: NIMH PDSP receptor binding, Alpha1D; details: [3H]Prazosin, read-out: % Inhibition of Binding at 10 µM D-473
T5 construct: purchased NIMH PDSP
T5 sequence (P25100 whole entry): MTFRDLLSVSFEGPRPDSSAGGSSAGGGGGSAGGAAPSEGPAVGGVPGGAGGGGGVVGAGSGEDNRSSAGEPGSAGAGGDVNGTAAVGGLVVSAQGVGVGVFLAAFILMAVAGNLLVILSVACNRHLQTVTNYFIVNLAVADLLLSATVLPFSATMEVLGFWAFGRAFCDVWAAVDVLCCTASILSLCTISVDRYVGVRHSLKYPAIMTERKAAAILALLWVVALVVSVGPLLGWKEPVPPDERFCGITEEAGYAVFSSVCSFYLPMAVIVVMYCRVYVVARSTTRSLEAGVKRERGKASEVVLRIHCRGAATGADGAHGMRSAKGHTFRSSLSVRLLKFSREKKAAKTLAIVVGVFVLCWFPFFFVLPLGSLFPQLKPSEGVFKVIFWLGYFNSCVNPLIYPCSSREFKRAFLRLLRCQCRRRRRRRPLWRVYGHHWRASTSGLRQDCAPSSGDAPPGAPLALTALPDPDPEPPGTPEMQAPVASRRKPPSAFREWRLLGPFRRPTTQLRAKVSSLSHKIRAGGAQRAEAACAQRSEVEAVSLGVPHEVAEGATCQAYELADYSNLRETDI

Alpha2A = target: T6, Alpha2A (Homo sapiens, UniProt P08913); assay: NIMH PDSP receptor binding, Alpha2A; details: [3H]Clonidine, read-out: % Inhibition of Binding at 10 µM D-473
T6 construct: purchased NIMH PDSP
T6 sequence (P08913 whole entry): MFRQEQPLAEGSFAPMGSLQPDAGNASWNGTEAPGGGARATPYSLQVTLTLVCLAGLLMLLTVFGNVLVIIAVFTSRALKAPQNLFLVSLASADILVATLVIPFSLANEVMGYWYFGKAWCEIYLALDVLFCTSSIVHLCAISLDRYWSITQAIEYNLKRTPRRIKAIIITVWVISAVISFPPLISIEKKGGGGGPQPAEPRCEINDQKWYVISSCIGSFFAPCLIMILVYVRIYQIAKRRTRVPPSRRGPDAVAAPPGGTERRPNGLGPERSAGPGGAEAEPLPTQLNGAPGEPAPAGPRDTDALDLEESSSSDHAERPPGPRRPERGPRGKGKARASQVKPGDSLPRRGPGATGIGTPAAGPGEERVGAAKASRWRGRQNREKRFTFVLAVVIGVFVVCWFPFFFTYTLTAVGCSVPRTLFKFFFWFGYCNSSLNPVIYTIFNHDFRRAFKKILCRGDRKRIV

BZP Rat Brain Site = assay: NIMH PDSP receptor binding, BZP Rat Brain Site; details: 3H-Flunitrazepam
δ-opioid = target: T7, δ-opioid (Homo sapiens, UniProt P41143); assay: NIMH PDSP receptor binding, δ-opioid; details: [3H]DADLE, read-out: % Inhibition of Binding at 10 µM D-473
T7 construct: purchased NIMH PDSP
T7 sequence (P41143 whole entry): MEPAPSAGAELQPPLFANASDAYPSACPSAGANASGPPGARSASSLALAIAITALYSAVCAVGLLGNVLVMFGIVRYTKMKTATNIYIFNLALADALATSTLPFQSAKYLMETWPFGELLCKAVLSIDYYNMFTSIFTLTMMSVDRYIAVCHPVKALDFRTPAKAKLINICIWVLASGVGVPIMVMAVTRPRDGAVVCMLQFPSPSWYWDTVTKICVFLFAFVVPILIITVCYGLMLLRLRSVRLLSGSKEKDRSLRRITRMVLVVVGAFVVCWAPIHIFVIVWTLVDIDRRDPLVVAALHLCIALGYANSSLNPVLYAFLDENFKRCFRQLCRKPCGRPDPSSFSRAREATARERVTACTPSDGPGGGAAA

H2 = target: T8, H2 (Homo sapiens, UniProt P25021); assay: NIMH PDSP receptor binding, H2; details: [3H]Tiotodine
T8 construct: NIMH PDSP
T8 sequence (P25021 whole entry): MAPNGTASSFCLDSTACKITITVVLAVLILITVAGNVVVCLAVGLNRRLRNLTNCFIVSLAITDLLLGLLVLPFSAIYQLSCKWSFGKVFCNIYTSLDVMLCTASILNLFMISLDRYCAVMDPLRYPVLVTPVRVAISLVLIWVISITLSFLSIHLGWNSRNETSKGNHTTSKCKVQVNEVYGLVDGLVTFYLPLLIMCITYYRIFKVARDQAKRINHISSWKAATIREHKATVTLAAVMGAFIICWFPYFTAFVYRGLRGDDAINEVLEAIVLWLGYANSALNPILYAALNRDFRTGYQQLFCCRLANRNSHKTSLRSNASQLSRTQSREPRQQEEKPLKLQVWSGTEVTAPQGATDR

M2 = target: T9, M2 (Homo sapiens, UniProt P08172); assay: biochemical; details: read-out: % Inhibition of Binding at 10 µM D-473
T9 construct: purchased NIMH PDSP
T9 sequence (P08172 whole entry): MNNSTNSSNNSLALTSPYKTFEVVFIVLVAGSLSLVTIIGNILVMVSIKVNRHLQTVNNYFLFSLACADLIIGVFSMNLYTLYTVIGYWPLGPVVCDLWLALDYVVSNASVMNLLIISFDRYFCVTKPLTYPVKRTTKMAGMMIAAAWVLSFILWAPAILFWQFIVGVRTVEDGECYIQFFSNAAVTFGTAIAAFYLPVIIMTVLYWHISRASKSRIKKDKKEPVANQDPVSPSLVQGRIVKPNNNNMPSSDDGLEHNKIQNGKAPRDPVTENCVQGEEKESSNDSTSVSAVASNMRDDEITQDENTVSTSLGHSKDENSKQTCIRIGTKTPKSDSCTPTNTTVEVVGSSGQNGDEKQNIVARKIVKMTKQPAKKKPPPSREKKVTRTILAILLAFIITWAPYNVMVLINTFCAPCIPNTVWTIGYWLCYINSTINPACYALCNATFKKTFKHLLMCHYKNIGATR

PBR = assay: NIMH PDSP receptor binding, PBR
[1] = tested on: extracellular DA, 5-HT, NE and metabolites in the medial prefrontal cortex (mPFC); assay: Microdialysis in medial prefrontal cortex, monoamines and metabolites; assay type: in vivo, rat; details: 10 mg/kg i.p.
Description: Adult male Sprague-Dawley rats (Harlan, Indianapolis, IN) weighing between 250 and 350 g were used for all experiments. Rats were housed in a temperature and humidity controlled room with 12 hr light/dark cycles with food and water available ad libitum. Adequate measures were taken to prevent animal pain and discomfort. All animals were treated as approved by the University of Michigan Unit for Laboratory Animal Medicine (ULAM) and in accordance with the National Institute of Health (NIH) Guidelines for the Care and Use of Laboratory Animals.
Rats were anesthetized with using an isoflurane vaporizer that was interfaced to a model 963 Ultra Precise stereotaxic instrument with 0.1 mm resolution (David Kopf Instruments, Tujunga, CA). Concentrically designed microdialysis probes (1 mm dialyzing length) were built in house then implanted bilaterally into the dorsal lateral striatum (DLS) and the medial prefrontal cortex (mPFC) according to the following coordinates from bregma and dura (in mm): AP +1, ML +3.3, DV –5.7 and AP +3, ML −0.5, DV −5, respectively (Paxinos and Watson, 2007). […] 1 mm probes were selected for higher spatial resolution and lower tissue damage compared to larger probes. Probes were secured to the skull by acrylic dental cement and metallic screws. Following surgery, rats were allowed to recover and experiments were run 24 hr after probe implantation. Microdialysis probes were flushed at a flow rate of 2 µl/min with aCSF (composition in mM: CaCl2 1.2; KCl 2.7, NaCl 148 and MgCl2 0.85) for 2 hr using a Chemyx Fusion 400 syringe pump (Chemyx, Stafford, TX). Perfusion flow rate was then reduced to 1 µl/min and samples were collected every 10 min. Baseline values were collected for 50 min and then the drug D-473 was injected (10 mg/kg, i.p.) and samples were collected for an additional 2 h. When experiments were completed, animals were euthanized and then brains were extracted and frozen at −80°C until histology.
Dopamine, norepinephrine (NE), serotonin (5HT), DOPAC, homovanillic acid (HVA) and 5-hydroxyindole acetic acid (5-HIAA) were analyzed using a benozyolation derivitization LC-MS method recently described by our laboratory. Briefly, 10 µl dialysate samples were derivatized by adding 5 µl of 100 mM sodium tetraborate, 5 µl of 2% benzoyl chloride in acetonitrile, and then 5 µl of a stable ^13C benzoylated isotope internal standard mixture was then added to improve quantitation. A Thermo Fisher Accela UHPLC (Waltham, MA) system automatically injected 5 µl of the sample onto a Waters (Milford, MA) HSS T3 reverse phase HPLC column (1 mm X 100 mm, 1.8 µm). Mobile phase A consisted of 10 mM ammonium formate and 0.15% formic acid. Mobile phase B was pure acetonitrile. Analytes were detected by an Thermo Fisher TSQ Quantum Ultra triple quadrupole mass spectrometer operating in multiple reaction monitoring (MRM) mode. The assay limits of detection were (nM in dialysate) for DA, 0.3; NE, 0.2; 5HT, 0.1; HVA, 0.5; DOPAC, 2; and 5HIAA, 5. […] Average standard deviation in above basal levels was 18%.
All neurochemical data were transformed into percent baseline with baseline values all averaging 100%. Statistical analysis was performed by t-test analysis of every point relative to baseline values (i.e. 100%) using Prism 6 (Graphpad Software Inc, La Jolla, CA). P values <0.05 were considered to be statistically significant.

hDAT = hDAT (Homo sapiens, UniProt Q01959); assay: Inhibition of [3H]DA uptake by cloned human DAT in HEK293 cells; details: nM, HEK293 cells expressing hDAT, average±S.E.M., 3 to 10 determinations
hDAT, sequence (Q01959 whole entry): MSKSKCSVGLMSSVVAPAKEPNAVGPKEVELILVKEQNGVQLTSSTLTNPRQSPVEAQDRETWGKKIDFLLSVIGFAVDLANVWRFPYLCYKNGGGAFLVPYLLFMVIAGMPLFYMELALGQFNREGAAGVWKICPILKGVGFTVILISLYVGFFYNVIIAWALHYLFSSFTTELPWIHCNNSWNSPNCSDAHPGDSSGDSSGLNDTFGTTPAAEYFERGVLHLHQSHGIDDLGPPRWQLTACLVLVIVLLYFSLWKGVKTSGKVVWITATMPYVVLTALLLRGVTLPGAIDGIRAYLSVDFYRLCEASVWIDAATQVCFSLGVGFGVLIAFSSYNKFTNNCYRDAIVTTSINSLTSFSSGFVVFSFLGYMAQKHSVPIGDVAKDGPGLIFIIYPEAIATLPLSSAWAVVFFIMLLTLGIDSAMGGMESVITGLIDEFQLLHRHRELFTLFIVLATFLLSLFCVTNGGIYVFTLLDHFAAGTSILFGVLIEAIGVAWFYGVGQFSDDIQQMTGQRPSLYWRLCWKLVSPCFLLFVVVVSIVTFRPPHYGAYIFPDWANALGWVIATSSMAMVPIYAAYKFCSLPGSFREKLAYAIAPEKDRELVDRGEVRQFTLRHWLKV

Structure (SMILES): COc1ccc(CN[C@@H]2CO[C@H](C(c3ccc(F)cc3)c3ccc(F)cc3)C[C@H]2O)cc1 [Compound D-473, (2S,4R,5R)-2-(bis(4-fluorophenyl)methyl)-5-((4-methoxybenzyl)amino)tetrahydro-2H-pyran-4-ol]
- inhibition at 10 µM (D4): 37.2%
- inhibition at 10 µM (5HT1e): 38%
- inhibition at 10 µM (5HT2c): 45.4%
- inhibition at 10 µM (5HT7): 41.4%
- inhibition at 10 µM (Alpha1D): 41.8%
- inhibition at 10 µM (Alpha2A): 14.5%
- % Inhibition of Binding at 10 µM D-473 (BZP Rat Brain Site): −3%
- inhibition at 10 µM (δ-opioid): 42.7%
- inhibition at 10 µM (H2; 10 µM, read-out: % Inhibition of Binding at 10 µM D-473): 70.1%
- Ki (H2; secondary assay, read-out: Ki for D-473): 141 nM
- inhibition at 10 µM (M2): -9.5%
- % Inhibition of Binding at 10 µM D-473 (PBR): 8.4%
- Reductions in dialysate DOPAC ([1]; Figure 8, region not specified): up to 35%
- Change in the level of 5-HIAA ([1]; region not specified (mPFC and DLS studied)): did not observe any change
- Effect on HVA ([1]; mPFC): lack of effect
- Increase of 5-HT ([1]; mPFC): > 3 fold
- Increase of DA ([1]; mPFC): 4 fold
- Increase of NE ([1]; mPFC): > 5 fold
- Reduction of DOPAC, maximal ([1]; mPFC): 35–40%
- Extracellular 5-HT at the end of two hours, percent baseline ([1]; mPFC, baseline 100%): 150%
- Extracellular 5HT, maximal, percent baseline ([1]; mPFC, baseline 100%): 339%
- Extracellular DA at the end of two hours, percent baseline ([1]; mPFC, baseline 100%): 122%
- Extracellular DA, maximal, percent baseline ([1]; mPFC, baseline 100%): 394%
- Extracellular NE at the end of two hours, percent baseline ([1]; mPFC, baseline 100%): 173%
- Extracellular NE, maximal, percent baseline ([1]; mPFC, baseline 100%): 547%
- Ki (hDAT): 70 nM and 70.4 nM
